From patent US11752103B2, “Tramadol hydrochloride solution” (Athena Bioscience, LLC, priority 2019, dated 2023)
Structures can show the parent of a compound that is named as a salt.

Assays:
[1] = Physicochemical data of tramadol hydrochloride
Experimental: Therefore, the Ex. 2 solution was evaluated for further studies.

μ-opioid receptors = settings: times more potent than tramadol; cited from earlier work
[2] = animal models; times more potent than tramadol; cited from earlier work

Row | SMILES | pH of tramadol hydrochloride [1] | pKa [1] | solubility ([1]; pH of about 4.5) | potency in μ-opioid binding relative to tramadol (μ-opioid receptors) | potency in producing analgesia relative to tramadol [2]
1 | COc1cccc(C2(O)CCCCC2CN(C)C)c1 (mixture of isomers) [tramadol hydrochloride, (±) cis-2-[(dimethylamino)methyl]-1-(3-methoxyphenyl)cyclohexan-1-ol, hydrochloride] | about 5.3 | 9.8 | freely soluble | – | –
2 | CN(C)C[C@@H]1CCCC[C@@]1(O)c1cccc(O)c1 (relative stereo) [ODMT, 3-[cis-2-[(dimethylamino)methyl]-1-hydroxycyclohexyl]-phenol] | – | – | – | 200 times | up to 6 times
